One data set concerns Acinetobacter baumannii. The experiment in a line: Antimicrobial activity against Acinetobacter baumannii ATCC 19606 assessed as inhibition of visible bacterial growth incubated for 18 hrs by broth microdilution method. It counts as functional. For orientation: Broth dilution looks for growth in wells or tubes with falling amounts of substance.
Another data set relates to Escherichia coli. The experiment in a line: Antimicrobial activity against Escherichia coli ATCC 25922 assessed as inhibition of visible bacterial growth incubated for 18 hrs by broth microdilution method. It counts as functional.
The next data set deals with Klebsiella pneumoniae. The data set is described as follows: Antimicrobial activity against Klebsiella pneumoniae ATCC 700603 assessed as inhibition of visible bacterial growth incubated for 18 hrs by broth microdilution method. It counts as functional.
For the next data set, the system named is Pseudomonas aeruginosa. The experiment in a line: Antimicrobial activity against Pseudomonas aeruginosa ATCC 27853 assessed as inhibition of visible bacterial growth incubated for 18 hrs by broth microdilution method. It counts as functional.
The next data set has as its system Bacillus subtilis. The experiment in a line: Antimicrobial activity against Bacillus subtilis ATCC 23857 assessed as inhibition of visible bacterial growth incubated for 18 hrs by broth microdilution method. It counts as functional.
In data set [1] the test system is Staphylococcus epidermidis. The data set is described as follows: Antimicrobial activity against Staphylococcus epidermidis ATCC 12228 assessed as inhibition of visible bacterial growth incubated for 18 hrs by broth-dilution method. It counts as functional.
In data set [2] the test system is Staphylococcus aureus. The experiment in a line: Antimicrobial activity against Staphylococcus aureus ATCC 25923 assessed as inhibition of visible bacterial growth incubated for 18 hrs by broth-dilution method. It counts as functional.
For a further data set, the system named is Enterococcus faecalis. The data set is described as follows: Antimicrobial activity against Enterococcus faecalis ATCC 29212 assessed as inhibition of visible bacterial growth incubated for 18 hrs by broth-dilution method. It counts as functional.
The subject of data set [3] is Staphylococcus aureus. The experiment in a line: Antimicrobial activity against methicillin-drug resistant Staphylococcus aureus ATCC 33591 assessed as concentration required to eliminate 90% bacteria incubated for 18 hrs by broth-microdilution method. It counts as functional.
The test system of data set [4] is Staphylococcus aureus. The data set is described as follows: Antibacterial activity against methicillin-resistant Staphylococcus aureus ATCC 33591 infected in male Balb/c mouse model of full thickness skin wound assessed as reduction in bacterial load in skin at 1 mg/ml pre-infected with bacteria for 1 hrs followed by compound administration at 1,12 and 36 hrs post infection and measured 60 hrs post infection by agar plate method. Particulars: time 59.0 hrs. It counts as functional, organism-based.

Data set [5] relates to Staphylococcus aureus. The data set is described as follows: Antibacterial activity against methicillin-resistant Staphylococcus aureus ATCC 33591 infected in male Balb/c mouse model of full thickness skin wound assessed as reduction in bacteria in skin wound at 1 mg/ml pre-infected with bacteria for 1 hrs followed by compound administration at 1,12 and 36 hrs post infection and measured after 10 days by photographic analysis. It counts as functional, organism-based. Particulars: time 10.0 day.

For data set [6], the system named is Staphylococcus aureus. The data set is described as follows: Antibacterial activity against methicillin-resistant Staphylococcus aureus ATCC 33591 infected in male Balb/c mouse model of full thickness skin wound assessed as reduction in number of inflammatory cells in skin at 1 mg/ml pre-infected with bacteria for 1 hrs followed by compound administration at 1,12 and 36 hrs post infection and measured after 10 days by H and E staining based analysis. It counts as functional, organism-based. The conditions noted are these: time 10.0 day.

The subject of data set [7] is Staphylococcus aureus. The data set is described as follows: Antibacterial activity against methicillin-resistant Staphylococcus aureus ATCC 33591 infected in male Balb/c mouse model of full thickness skin wound assessed as decrease in cell necrosis in skin at 1 mg/ml pre-infected with bacteria for 1 hrs followed by compound administration at 1,12 and 36 hrs post infection and measured after 10 days by H and E staining based analysis. It counts as functional, organism-based. Particulars: time 10.0 day.

Data set [8] can be described thus: Hemolytic activity in mouse red blood cells assessed as hemolysis incubated for 1 hrs by absorbance based assay. It counts as toxicity, cell-based. Particulars: erythrocyte.

Values after ≈ are worked out from the molar mass of the structure shown. Active and inactive are the calls of the source. No cut-off for these calls is given here.

Consider `CO[C@H]1/C=C/O[C@@]2(C)Oc3c(C)c(O)c4c(O)c(c(/C=N/N5CCN(C)CC5)c(O)c4c3C2=O)NC(=O)/C(C)=C\C=C\[C@H](C)[C@H](O)[C@@H](C)[C@@H](O)[C@@H](C)[C@H](OC(C)=O)[C@@H]1C` [RIFAMPIN], for which the MIC (as a rule, the lowest concentration that inhibits growth of the organism) with Acinetobacter baumannii is 1 µM (≈ 0.823 µg/mL); with Escherichia coli it was 8 µM (≈ 6.58 µg/mL); in the data set with Klebsiella pneumoniae, 32 µM (≈ 26.3 µg/mL); in the data set on Pseudomonas aeruginosa, 32 µM (≈ 26.3 µg/mL); in the data set on Bacillus subtilis it was less than 1 µM; in [1], less than 1 µM. The MIC with Staphylococcus aureus [2] and in the data set with Enterococcus faecalis was less than 1 µM in each case.

Take `CN[C@H](CC(C)C)C(=O)N[C@H]1C(=O)N[C@@H](CC(N)=O)C(=O)N[C@H]2C(=O)N[C@H]3C(=O)N[C@H](C(=O)N[C@H](C(=O)O)c4cc(O)cc(O)c4-c4cc3ccc4O)[C@H](O)c3ccc(c(Cl)c3)Oc3cc2cc(c3O[C@@H]2O[C@H](CO)[C@@H](O)[C@H](O)[C@H]2O[C@H]2C[C@](C)(N)[C@H](O)[C@H](C)O2)Oc2ccc(cc2Cl)[C@H]1O` [VANCOMYCIN]: the minimum inhibitory concentration (MIC) is 32 µM (≈ 46.4 µg/mL) in the data set with Acinetobacter baumannii; 128 µM (≈ 186 µg/mL) in the data set on Escherichia coli; 128 µM (≈ 186 µg/mL) in the data set on Klebsiella pneumoniae; more than 128 µM in the data set with Pseudomonas aeruginosa; less than 1 µM in the data set on Bacillus subtilis; less than 1 µM in [1]. The values for the MIC in the data set with Staphylococcus aureus [2] and in the data set on Enterococcus faecalis were less than 1 µM and 2 µM (≈ 2.9 µg/mL), respectively. For the same molecule, in the data set on Staphylococcus aureus [3], the EC90 (as a rule, the point of the concentration-response curve where the effect stands at 90%) is 289 nM. Besides, the outcome in the data set on Staphylococcus aureus [4], in the data set on Staphylococcus aureus [6] and in the data set with Staphylococcus aureus [7] was Active. Also, in the data set with Staphylococcus aureus [5], the Activity result is listed as “Active; Obvious Facilitation Of Wound Healing Not Observed”.

With H-RRWFRRWERWFE-NH2, the MIC in the data set on Acinetobacter baumannii worked out at 32 µM; with Escherichia coli it was 16 µM; with Klebsiella pneumoniae, 16 µM; with Pseudomonas aeruginosa, 16 µM; in the data set with Bacillus subtilis it was 4 µM; in data set [1], 8 µM. The results for the MIC with Staphylococcus aureus [2] and in the data set on Enterococcus faecalis were 32 µM and 128 µM, respectively. The HC10 in [8] is more than 256 µM.

Turning to H-RRWFRRWFRRWF-NH2, the MIC with Acinetobacter baumannii came to 16 µM; in the data set with Escherichia coli, 16 µM; with Klebsiella pneumoniae, 16 µM; in the data set on Pseudomonas aeruginosa, 16 µM; in the data set with Bacillus subtilis it was 8 µM; in [1], 8 µM. Also, the results for the MIC in the data set with Staphylococcus aureus [2] and in the data set on Enterococcus faecalis were 8 µM and 16 µM, respectively. In [8], the HC10 amounted to 16.44 µM.

Consider H-RRWFRRWFRWFF-NH2, for which the MIC with Acinetobacter baumannii stood at 32 µM; in the data set with Escherichia coli, 32 µM; in the data set on Klebsiella pneumoniae it was 32 µM; in the data set on Pseudomonas aeruginosa, 16 µM; in the data set on Bacillus subtilis, 2 µM; in data set [1], 4 µM. The MIC with Staphylococcus aureus [2] and in the data set on Enterococcus faecalis was 32 µM each time. Moreover, in [8], the Activity result is “Toxic”.

“H-RRWFRRWGRWFG-NH2 [listing 1 of 2 here]”: in data set [8], the HC10 is more than 256 µM.

As for “H-RRWFRRWGRWFG-NH2 [listing 2 of 2 here]”, the MIC in the data set on Acinetobacter baumannii came to 32 µM; in the data set with Escherichia coli, 8 µM; in the data set on Klebsiella pneumoniae, 8 µM; in the data set with Pseudomonas aeruginosa it was 2 µM; in the data set with Bacillus subtilis, 2 µM; in data set [1] it was 2 µM. Also, the values for the MIC in the data set with Staphylococcus aureus [2] and in the data set on Enterococcus faecalis were 16 µM and 32 µM, respectively.

Turning to H-RRWFRRWIRWFI-NH2, the minimal inhibitory concentration (MIC) in the data set on Acinetobacter baumannii is 16 µM; in the data set on Escherichia coli, 16 µM; in the data set on Klebsiella pneumoniae, 16 µM; in the data set with Pseudomonas aeruginosa, 16 µM; in the data set with Bacillus subtilis, 1 µM; in [1] it was 4 µM. For the same molecule, the MIC with Staphylococcus aureus [2] and in the data set on Enterococcus faecalis was 16 µM each time. Besides, the HC10 in data set [8] is 2.39 µM.

Consider H-RRWFRRWKRWFK-NH2, for which the MIC with Acinetobacter baumannii came out at 16 µM; in the data set on Escherichia coli, 8 µM; in the data set with Klebsiella pneumoniae, 4 µM; in the data set with Pseudomonas aeruginosa, 2 µM; in the data set with Bacillus subtilis, 1 µM; in data set [1] it was 2 µM. Moreover, the minimal inhibitory concentration (MIC) was 4 µM with Staphylococcus aureus [2] and 32 µM in the data set on Enterococcus faecalis. For the same molecule, the HC10 in data set [8] was more than 256 µM.

As to H-RRWFRRWLRWFL-NH2, the MIC with Acinetobacter baumannii came out at 32 µM; with Escherichia coli, 16 µM; with Klebsiella pneumoniae, 32 µM; in the data set with Pseudomonas aeruginosa, 16 µM; with Bacillus subtilis, 2 µM; in data set [1] it was 2 µM. The results for the MIC in the data set on Staphylococcus aureus [2] and in the data set with Enterococcus faecalis were 16 µM and 32 µM, respectively. Moreover, the Activity entry in data set [8] is “Toxic”.

As for H-RRWFRRWTRWFT-NH2, the MIC was 8 µM in the data set with Acinetobacter baumannii; 8 µM in the data set with Escherichia coli; 8 µM with Klebsiella pneumoniae; 4 µM in the data set on Pseudomonas aeruginosa; 1 µM in the data set with Bacillus subtilis; 2 µM in [1]. For the same molecule, the minimum inhibitory concentration (MIC) stood at 8 µM with Staphylococcus aureus [2] and 16 µM in the data set on Enterococcus faecalis. In addition, the HC10 in data set [8] is more than 256 µM.

Turning to H-RRWFRRWWRWFW-NH2, the MIC is 32 µM in the data set on Acinetobacter baumannii; 32 µM in the data set with Escherichia coli; 64 µM in the data set with Klebsiella pneumoniae; 32 µM with Pseudomonas aeruginosa; 4 µM in the data set with Bacillus subtilis; 4 µM in [1]. In addition, the MIC in the data set with Staphylococcus aureus [2] and with Enterococcus faecalis was 32 µM in each case. In addition, the Activity entry in [8] was “Toxic”.
